Consider three compounds from patent publication US12662482B2 (The Johns Hopkins University, priority 2020, dated 2026).

One test relates to NCI60 cancer cell lines. As to conditions: cited from earlier work.
The subject of a further test is mouse xenograft. The conditions noted are these: mouse xenograft assays; cited from earlier work.
The subject of a further test is RPA194. The experiment in a line: RPA194 destruction / Pol I inhibition, high-content imaging in A375 cells. The test is classed as cell-based. The conditions noted are these: A375 cells treated for 4 hours, anti-RPA194 immunofluorescence; pIC50 >= 5.02 deemed a Pol I inhibitor. The method, then:
Cell culture: A375 cells (CRL-1619, ATCC) were grown in DMEM (GJBCO) supplemented with […] (GTBCO) in 5% CO2 at 37° C.
Cell treatment and Imaging: 18 hours post-seeding in cell carrier black 384-well plates (PerkinElmer) at 15 000 cells/well, A375 cells were treated for 4 hours with a positive control or test compounds (9 serial semi-log dilutions, top concentration 10 μM). Upon treatment A375 cells were (i) fixed for 15 min at RT with 4% of paraformaldehyde, (ii) permeabilized for 20 min at RT with 0.1-0.5% of NP-40, (iii) incubated with primary antibodies at 4° C.: anti-RPA194 (1:1000-1:1250 dilution, sc-48385, Santa Cruz Biotechnology) and anti-gH2Ax (1:5000 dilution, 81299, Abcam or 1:4000, JBW302, Millipore) (iv) incubated for 1 h at RT with Hoechst (1:5000 dilution, H3570, ThermoFisher) and secondary antibodies: anti-mouse-AlexaFluor488 (1:2000 dilution, A11001, ThermoFisher) and anti-rabbit-AlexaFluor647 (1:2000 dilution, A21443, ThermoFisher) or goat anti-mouse AlexaFluor-594 (1:1000 dilution). Images were acquired on an Operetta CLS High-Content Analysis System (PerkinElmer) (40× objective; 9 fields/well) and processed using the Columbus Image Analysis System (PerkinElmer) or by using Molecular Devices ImageXpress Micro XLS High Content Imager and MetaXpress high-content acquisition and analysis software.
In the table below, (+) is associated with a pIC50 5.02 to 5.8; (++) with pIC50 5.8 to 6.3; and (+++) with a pIC50 above 6.3.

Where a name gives a salt, the structure may show the parent alone.

Turning to `CN(C)CCNC(=O)c1cccn2c(=O)c3cc4ccccc4cc3nc12` [BMH-21, 12H-Benzo[g]pyrido[2,1-b]quinazoline-4-carboxamide, N-[2(dimethylamino)ethyl]-12-oxo], in the test on NCI60 cancer cell lines, the anticancer activity entry is “anticancer activity”. Moreover, the tumor burden entry in the test on mouse xenograft was “reduced tumor burden”.
For `O=C(NCCCN1CC[C@H](O)C1)c1cccn2c(=O)c3ccc4ccccc4c3nc12` [Example 39, (S)-N-(3-(3-hydroxypyrrolidin-1-yl)propyl)-7-oxo-7H-benzo[h]pyrido[2,1-b]quinazoline-12-carboxamide hydrochloride], the “Activity Range (pIC50)” value with RPA194 was “+ ((+) is associated with a pIC50 5.02 to 5.8)”.
Regarding `O=C(NCCCN1CC[C@@H](O)C1)c1cccn2c(=O)c3ccc4ccccc4c3nc12` [Example 40, (R)-N-(3-(3-hydroxypyrrolidin-1-yl)propyl)-7-oxo-7H-benzo[h]pyrido[2,1-b]quinazoline-12-carboxamide; hydrochloride], in the test on RPA194, the “Activity Range (pIC50)” value was “+ ((+) is associated with a pIC50 5.02 to 5.8)”.
